Data on one compound can be found in publication PMC5676566 (Nature chemical biology, 2017).

The assay concerns the target BG505 Env (pseudovirus) (Human immunodeficiency virus 1, UniProt Q2N0S5). Description: pseudovirus neutralization, TZM-bl cells, luciferase. To be noted: 1% DMSO; separate panel assay printed too (Supplementary Table 1). The assay is classed as cell-based.

In general, IC50 refers to the concentration at which inhibition is half-maximal. Read a low IC50 as greater potency in that assay. `COc1ccnc2[nH]cc(C(=O)C(=O)N3CCN(C(=O)c4ccccc4)C[C@H]3C)c12` [BMS-378806] yielded an IC50 of 1190 nM.
